Measured values as given in US4746736A, “Carbapenem antibiotics” (priority 1986, dated 1988).
≈ marks a conversion by molar mass, not a printed value. Structures can show the parent of a compound that is named as a salt. Where two headings read alike, the source gives them in different places.

Tests used:
Assay type in all cases: cell-based
[1] = test system: S. aureus A-9537; assay: In vitro MIC by tube dilution, S. aureus A-9537; settings: Staphylococcus aureus, read-out: MIC
[2] = test system: S. aureus A-9606 (Pen-res.); assay: In vitro MIC by tube dilution, S. aureus A-9606 (Pen-res.); settings: Staphylococcus aureus, read-out: MIC
[3] = test system: S. aureus A15097 (Meth-res.); assay: In vitro MIC by tube dilution, S. aureus A15097 (Meth-res.); settings: Staphylococcus aureus
[4] = test system: K. pneumoniae A-9664; assay: In vitro MIC by tube dilution, K. pneumoniae A-9664; settings: Klebsiella pneumoniae, A9664, read-out: MIC
[5] = test system: K. pneumoniae A20468; assay: In vitro MIC by tube dilution, K. pneumoniae A20468; settings: Klebsiella pneumoniae, A20468, K. pneumoniae A20468; read-out: MIC
[6] = test system: P. mirabilis A-9900; assay: In vitro MIC by tube dilution, P. mirabilis A-9900; settings: Proteus mirabilis, A9900, P. mirabilis A-9900; read-out: MIC
[7] = test system: P. morganii A15153; assay: In vitro MIC by tube dilution, P. morganii (M. morganii) A15153; settings: Morganella morganii, read-out: MIC
[8] = test system: P. rettgeri A22424; assay: In vitro MIC by tube dilution, P. rettgeri A22424; settings: Providencia rettgeri, A22424, P. rettgeri A22424; read-out: MIC
[9] = test system: S. marcescens A20019; assay: In vitro MIC by tube dilution, S. marcescens A20019; settings: Serratia marcescens, read-out: MIC
[10] = test system: P. aeruginosa A-9843A; assay: In vitro MIC by tube dilution, P. aeruginosa A-9843A; settings: Pseudomonas aeruginosa, A9843A, read-out: MIC
[11] = test system: E. cloacae A-9659; assay: In vitro MIC by tube dilution, E. cloacae A-9659; settings: Enterobacter cloacae, read-out: MIC
[12] = test system: S. pneumoniae A-9585; assay: In vitro MIC by tube dilution, S. pneumoniae A-9585; settings: Streptococcus pneumoniae, A9585, S. pneumoniae A-9585; read-out: MIC
[13] = test system: S. pyogenes A9604; assay: In vitro MIC by tube dilution, S. pyogenes A9604; settings: Streptococcus pyogenes, A9604, S. pyogenes A-9604; read-out: MIC
[14] = test system: H. influenzae A-9833; assay: In vitro MIC by tube dilution, H. influenzae A-9833; settings: Haemophilus influenzae, A9833
[15] = test system: H. influenzae A21518; assay: In vitro MIC by tube dilution, H. influenzae A21518; settings: Haemophilus influenzae
[16] = test system: H. influenzae A20178; assay: In vitro MIC by tube dilution, H. influenzae A20178; settings: Haemophilus influenzae
[17] = test system: H. influenzae A21522; assay: In vitro MIC by tube dilution, H. influenzae A21522; settings: Haemophilus influenzae
[18] = test system: E. coli A15119; assay: In vitro MIC by tube dilution, E. coli A15119; settings: Escherichia coli, A15119, E. coli A15119; read-out: MIC
[19] = test system: E. coli A20341-1; assay: In vitro MIC by tube dilution, E. coli A20341-1; settings: Escherichia coli, A203411, read-out: MIC
[20] = test system: E. cloacae A-9656; assay: In vitro MIC by tube dilution, E. cloacae A-9656; settings: Enterobacter cloacae, A9656, E. cloacae A-9656; read-out: MIC
[21] = A9537, S. aureus A-9537, no serum

SMILES | MIC [4] [µg/mL] | MIC [5] [µg/mL] | MIC [6] [µg/mL] | MIC [8] [µg/mL] | MIC [9] [µg/mL] | MIC [12] [ng/mL] | MIC [13] [ng/mL] | MIC [1, 21] [µg/mL] | MIC ([2]; S. aureus A-9606 (Pen-res)) [ng/mL] | MIC ([10]; P. aeruginosa A-9843a) [µg/mL] | also measured
C[C@@H](O)[C@H]1C(=O)N2C(C(=O)[O-])=C(SCCc3cc[n+](C)cc3)C[C@H]12 [Example 2] | 0.06 (≈ 0.172 µM) | 0.13 (≈ 0.373 µM) | 0.03 (≈ 0.0861 µM) | 0.13 (≈ 0.373 µM) | 0.03 (≈ 0.0861 µM) |  |  |  |  |  | MIC ([1]; A9537, S. aureus A-9537 + 50% serum, overnight 37° C.): 0.016 µg/mL; MIC ([1]; A9537, S. aureus A-9537, no serum, overnight 37° C.): 0.004 µg/mL (≈ 0.0115 µM); MIC ([2]; S. aureus A-9606 (Pen-res.), overnight 37° C.): 8 ng/mL (≈ 0.023 µM); MIC ([3]; S. aureus A15097 (Meth-res.), overnight 37° C.): 8 µg/mL (≈ 23 µM); MIC ([7]; A15153, P. morganii A15153): 0.06 µg/mL (≈ 0.172 µM); MIC ([10]; P. aeruginosa A-9843A): 8 µg/mL (≈ 23 µM); MIC ([11]; A9659, E. cloacae A9659): 0.13 µg/mL (≈ 0.373 µM)
CCC[n+]1ccc(CSC2=C(C(=O)[O-])N3C(=O)[C@H]([C@@H](C)O)[C@H]3C2)cc1 [Example 6, 3-(1-Propylpyridine-4-yl-methanethio)-6α-[1-(R)-hydroethyl]-7-oxo-1-azabicyclo(3.2.0)hept-2-ene-2-carboxylate] |  |  |  |  |  | 4 (≈ 0.011 µM) | 4 (≈ 0.011 µM) | 0.03 (≈ 0.0828 µM) | 30 (≈ 0.0828 µM) | 8 (≈ 22.1 µM) | MIC [14]: > 32 µg/mL; MIC [15]: > 32 µg/mL
C[C@@H](O)[C@H]1C(=O)N2C(C(=O)[O-])=C(SCc3cc[n+](C)cc3)C[C@H]12 [Example 1, 1-Methyl-4-[2-carboxy-6α-[1(R)-hydroxyethyl]-7-oxo-1-azabicyclo[3.2.0]hept-2-en-3-thiomethyl]pyridinium hydroxide inner salt] |  |  |  |  |  |  |  |  |  |  | MIC [16]: 32 µg/mL; MIC [17]: 8 µg/mL
C[C@@H](O)[C@H]1C(=O)N2C(C(=O)[O-])=C(SCCc3cccc[n+]3C)C[C@H]12 [Example 5, 3-(N-Methylpyridine-2-yl-ethanethio]-6α-[1-(R)-hydroxyethyl]-7-oxo-1-azabicyclo(3.2.0)hept-2-ene-2-carboxylate] | 0.03 (≈ 0.0861 µM) | 0.06 (≈ 0.172 µM) | 0.03 (≈ 0.0861 µM) | 0.13 (≈ 0.373 µM) | 0.06 (≈ 0.172 µM) | 4 (≈ 0.0115 µM) | 4 (≈ 0.0115 µM) | 0.004 (≈ 0.0115 µM) | 8 (≈ 0.023 µM) | 4 (≈ 11.5 µM) | MIC ([1]; A9537, S. aureus A-9537 +50% serum): 0.016 µg/mL (≈ 0.0459 µM); MIC ([3]; S. aureus A15097 (Meth-res)): 8 µg/mL (≈ 23 µM); MIC [18]: 0.016 µg/mL (≈ 0.0459 µM); MIC [19]: 0.016 µg/mL (≈ 0.0459 µM); MIC ([7]; A15153, M. morganii A15153): 0.06 µg/mL (≈ 0.172 µM); MIC [20]: 0.13 µg/mL (≈ 0.373 µM); MIC ([11]; A9659, E. cloacae A-9659): 0.06 µg/mL (≈ 0.172 µM)
